Test results: the NIST ThermoML archive (doi:10.1021/je5000617)

Details: for mass density / speed of sound / viscosity: 101.33 kPa, Liquid; for viscosity: Concentric cylinders viscometry

CCCCCCCCOS(=O)(=O)[O-].CCCCn1cc[n+](C)c1 [1-butyl-3-methylimidazolium octyl sulfate]
Details | mass density [kg/m3] | speed of sound [m/s] | surface tension liquid-gas [mN/m]
303 K | 1060.2 | 1461 | 35.7
308 K | 1057.8 | 1450 | 35.2
313 K | 1053.2 | 1430 | 34.9
318 K | 1050.8 | 1419 | 34.7
323 K | 1046.4 | 1406 | 34.3
328 K | 1042.2 | 1391 | 33.9
333 K | 1039.8 | 1380 | –

CCn1cc[n+](C)c1.CS(=O)(=O)[O-] [1-ethyl-3-methylimidazolium methanesulfonate]
Details | mass density [kg/m3] | speed of sound [m/s] | surface tension liquid-gas [mN/m] | viscosity [mPa·s]
303 K | 1247 | 1796 | 47.8 | 120
308 K | 1243.2 | 1778 | 47.4 | 87
313 K | 1240.2 | 1764 | 47 | 63
318 K | 1237.6 | 1752 | 46.7 | 48
323 K | 1234.4 | 1738 | 46.1 | 37
328 K | 1232.4 | 1727 | 45.7 | 29
333 K | 1230.2 | 1708 | 45.4 | 20

CCCCn1cc[n+](C)c1.F[P-](F)(F)(F)(F)F [1-butyl-3-methylimidazolium hexafluorophosphate]
Details | mass density [kg/m3] | speed of sound [m/s] | surface tension liquid-gas [mN/m] | viscosity [mPa·s]
303 K | 1359.4 | 1433 | 45.3 | 190
308 K | 1358.2 | 1417 | 45 | 150
313 K | 1353.2 | 1408 | 44.7 | 132
318 K | 1349.8 | 1395 | 44.4 | 106
323 K | 1346.8 | 1384 | 44.1 | 90
328 K | 1343.8 | 1374 | 43.8 | 75
333 K | 1340.6 | 1363 | 43.5 | 58
